Measured values as given in publication PMC3500388 (Organic & biomolecular chemistry, 2012).
Values joined by “and” are separate entries in the source; they are usually repeats but may differ in a detail not shown here. Equal entries are not always repeated. Values belong to the molecule of their own block, whether it stands above or below them.

Tests used:
[1] = target: full-length human ERβ (Homo sapiens, UniProt Q92731); test: Luciferase reporter gene assay in HepG2 cells, ERβ, antagonist mode; type: cell-based
[2] = target: T1, full-length human ERα (Homo sapiens, UniProt P03372); test: Luciferase reporter gene assay in HepG2 cells, ERα, agonist mode; conditions: for Agonist mode ERα Eff (%E2) / ERα agonist activity / intrinsic activity, in words: HepG2 cells; for Agonist mode ERα Eff (%E2): mean ± s.e.m. as percentage of 10^−7 M E2
T1 sequence (P03372 1-595): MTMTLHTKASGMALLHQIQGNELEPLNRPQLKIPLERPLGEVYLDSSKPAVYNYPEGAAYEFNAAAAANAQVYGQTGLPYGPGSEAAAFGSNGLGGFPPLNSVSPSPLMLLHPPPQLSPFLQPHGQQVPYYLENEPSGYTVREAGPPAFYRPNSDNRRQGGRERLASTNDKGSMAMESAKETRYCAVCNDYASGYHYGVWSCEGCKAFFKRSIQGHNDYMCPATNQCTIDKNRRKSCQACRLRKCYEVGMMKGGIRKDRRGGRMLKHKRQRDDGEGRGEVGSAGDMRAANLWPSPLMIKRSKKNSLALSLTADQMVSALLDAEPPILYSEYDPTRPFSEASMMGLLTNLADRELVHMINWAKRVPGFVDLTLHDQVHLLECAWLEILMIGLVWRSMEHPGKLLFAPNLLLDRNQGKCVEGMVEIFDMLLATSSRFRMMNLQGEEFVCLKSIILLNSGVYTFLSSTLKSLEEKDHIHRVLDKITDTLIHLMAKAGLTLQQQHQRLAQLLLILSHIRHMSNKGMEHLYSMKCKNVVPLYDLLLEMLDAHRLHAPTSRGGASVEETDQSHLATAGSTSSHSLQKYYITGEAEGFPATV

[3] = target: T1, full-length human ERα; test: Luciferase reporter gene assay in HepG2 cells, ERα, antagonist mode; type: cell-based
[4] = target: T2, purified full-length human ERα (Homo sapiens, UniProt P03372); test: Competitive radiometric binding assay, ERα; conditions: estradiol = 100%; 2 nM [3H]estradiol tracer, 18–24 h at 0 °C
T2 sequence (P03372 1-595): T1 sequence (P03372 1-595)

[5] = target: purified full-length human ERβ (Homo sapiens, UniProt Q92731); test: Competitive radiometric binding assay, ERβ; conditions: estradiol = 100%; 2 nM [3H]estradiol tracer, 18–24 h at 0 °C
[6] = tested on: HEC-1 cells; conditions: cited from earlier work

Sequence of full-length human ERβ (Q92731 whole entry): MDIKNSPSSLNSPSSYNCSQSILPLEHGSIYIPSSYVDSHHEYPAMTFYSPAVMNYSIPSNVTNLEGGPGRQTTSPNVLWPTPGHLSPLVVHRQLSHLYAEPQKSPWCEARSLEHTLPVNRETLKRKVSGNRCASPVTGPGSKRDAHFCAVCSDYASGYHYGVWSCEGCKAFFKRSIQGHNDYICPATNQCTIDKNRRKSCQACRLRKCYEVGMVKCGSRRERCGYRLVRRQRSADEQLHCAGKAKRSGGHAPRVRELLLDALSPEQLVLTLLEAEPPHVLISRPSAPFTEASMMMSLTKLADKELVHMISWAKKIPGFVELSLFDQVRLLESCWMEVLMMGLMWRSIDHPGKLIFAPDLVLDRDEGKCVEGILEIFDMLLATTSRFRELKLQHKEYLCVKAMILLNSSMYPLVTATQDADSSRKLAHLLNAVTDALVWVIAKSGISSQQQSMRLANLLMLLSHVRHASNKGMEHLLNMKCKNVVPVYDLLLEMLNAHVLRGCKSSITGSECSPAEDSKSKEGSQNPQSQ
Sequence of purified full-length human ERβ (Q92731 whole entry): as above

Structure (SMILES): CC/C(=C(\c1ccc(O)cc1)c1ccc(OCCN(C)C)cc1)c1ccccc1 [4-OH TAM, 4-OH tamoxifen, reference compound]
- Antagonist mode ERβ Eff (%E2) [1]: −20 ± 2 %E2

Structure (SMILES): O=S(=O)(Nc1ccccc1)C1CC2OC1C(c1ccc(O)cc1)=C2c1ccc(O)cc1 (stereo not shown) [Compound 11a, 5,6-Bis(4-hydroxyphenyl)-N-phenyl-7-oxabicyclo[2.2.1]hept-5-ene-2-sulfonamide]
- EC50 [2]: 0.1 µM
- Agonist mode ERα Eff (%E2) [2]: 78 ± 1 %E2

Structure (SMILES): O=S(=O)(Nc1ccccc1Cl)C1CC2OC1C(c1ccc(O)cc1)=C2c1ccc(O)cc1 (stereo not shown) [Compound 11c, N-(2-Chlorophenyl)-5,6-bis(4-hydroxyphenyl)-7-oxabicyclo-[2.2.1]hept-5-ene-2-sulfonamide]
- EC50 [2]: 0.2 µM
- Agonist mode ERα Eff (%E2) [2]: 81 ± 4 %E2

Structure (SMILES): CCN(c1ccccc1)S(=O)(=O)C1CC2OC1C(c1ccc(O)cc1)=C2c1ccc(O)cc1 (stereo not shown) [Compound 11i, N-Ethyl-5,6-bis(4-hydroxyphenyl)-N-phenyl-7-oxabicyclo-[2.2.1]hept-5-ene-2-sulfonamide]
- ERα agonist activity / intrinsic activity, in words [2]: low efficacy compound
- Agonist mode ERα Eff (%E2) [2]: 11 ± 1 %E2

Structure (SMILES): C[C@]12CC[C@@H]3c4ccc(O)cc4C[C@@H](CCCCCCCCC[S+]([O-])CCCC(F)(F)C(F)(F)F)[C@H]3[C@@H]1CC[C@@H]2O (stereo partly shown) [Fulvestrant, fulvestrant, reference compound]
- ERα antagonist profile, in words [3]: full antagonist
- Agonist mode ERα Eff (%E2) [2]: 1 ± 1 %E2
- ERβ profile / intrinsic activity, in words ([1]; HepG2 cells): full antagonist

Structure (SMILES): O=S(=O)(Oc1ccccc1)[C@H]1C[C@H]2O[C@@H]1C(c1ccc(O)cc1)=C2c1ccc(O)cc1 [OBHS, exo-5,6-bis-(4-hydroxyphenyl)-7-oxabicyclo[2.2.1]hept-5-ene-2-sulfonic acid phenyl ester]
- profile in HEC-1 cells, in words [6]: full antagonist

The next lines start with the values.

- Agonist mode ERα Eff (%E2) [2]: 42 ± 3 %E2
Structure (SMILES): O=S(=O)(Nc1ccc(Cl)cc1)C1CC2OC1C(c1ccc(O)cc1)=C2c1ccc(O)cc1 (stereo not shown) [Compound 11d, N-(4-Chlorophenyl)-5,6-bis(4-hydroxyphenyl)-7-oxabicyclo-[2.2.1]hept-5-ene-2-sulfonamide]

- IC50 ([3]; read-out: Antagonist mode ERα IC50, in the presence of 10^−8 M E2): 0.74 µM
- Agonist mode ERα Eff (%E2) [2]: 31 ± 3 %E2
- IC50 ([1]; read-out: Antagonist mode ERβ IC50, HepG2 cells, in the presence of 10^−8 M E2): 0.01 µM
Structure (SMILES): CN(c1ccccc1)S(=O)(=O)C1CC2OC1C(c1ccc(O)cc1)=C2c1ccc(O)cc1 (stereo not shown) [Compound 11e, 5,6-Bis(4-hydroxyphenyl)-N-methyl-N-phenyl-7-oxabicyclo-[2.2.1]hept-5-ene-2-sulfonamide]

- relative binding affinity (RBA) for ERα [4]: 7.17% and 7.2%
- relative binding affinity (RBA) for ERβ [5]: 1.59% and 1.6%
- EC50 [2]: 0.008 µM
- Agonist mode ERα Eff (%E2) [2]: 33 ± 1 %E2
Structure (SMILES): CN(c1ccccc1Cl)S(=O)(=O)C1CC2OC1C(c1ccc(O)cc1)=C2c1ccc(O)cc1 (stereo not shown) [Compound 11g, N-(2-Chlorophenyl)-5,6-bis(4-hydroxyphenyl)-N-methyl-7-oxabicyclo[2.2.1]hept-5-ene-2-sulfonamide]

- ERα agonist activity / intrinsic activity, in words [2]: as low as that for fulvestrant
- Agonist mode ERα Eff (%E2) [2]: 3 ± 1 %E2
- ERβ profile / intrinsic activity, in words ([1]; HepG2 cells): as low as that for fulvestrant
Structure (SMILES): CCN(c1ccc(OC)cc1)S(=O)(=O)C1CC2OC1C(c1ccc(O)cc1)=C2c1ccc(O)cc1 (stereo not shown) [Compound 11j, N-Ethyl-5,6-bis(4-hydroxyphenyl)-N-(4-methoxyphenyl)-7-oxabicyclo[2.2.1]hept-5-ene-2-sulfonamide]

- Agonist mode ERα Eff (%E2) [2]: 13 ± 1 %E2
Structure (SMILES): CCN(c1ccccc1Cl)S(=O)(=O)C1CC2OC1C(c1ccc(O)cc1)=C2c1ccc(O)cc1 (stereo not shown) [Compound 11k, N-(2-Chlorophenyl)-N-ethyl-5,6-bis(4-hydroxyphenyl)-7-oxabicyclo[2.2.1]hept-5-ene-2-sulfonamide]

- Agonist mode ERα Eff (%E2) [2]: 1 ± 1 %E2
Structure (SMILES): CCN(c1ccc(Cl)cc1)S(=O)(=O)C1CC2OC1C(c1ccc(O)cc1)=C2c1ccc(O)cc1 (stereo not shown) [Compound 11l, N-(4-Chlorophenyl)-N-ethyl-5,6-bis(4-hydroxyphenyl)-7-oxabicyclo[2.2.1]hept-5-ene-2-sulfonamide]

- Agonist mode ERα Eff (%E2) [2]: 3 ± 3 %E2
Structure (SMILES): O=S(=O)(C1CC2OC1C(c1ccc(O)cc1)=C2c1ccc(O)cc1)N(CC(F)(F)F)c1ccc(Cl)cc1 (stereo not shown) [Compound 11o, N-(4-Chlorophenyl)-5,6-bis(4-hydroxyphenyl)-N-(2,2,2-trifluoroethyl)-7-oxabicyclo[2.2.1]hept-5-ene-2-sulfonamide]
